According to patent publication US20120058997A1, “IMIDAZO[1,2-B]PYRIDAZINE AND PYRAZOLO[1,5-A]PYRIMIDINE DERIVATIVES AND THEIR USE AS PROTEIN KINASE INHIBITORS” (SuperGen, Inc., priority 2006, published 2012):
pIC50: −log10 of the molar value.
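Further: in vitro Pim-1 reaction run 2 h at 30 °C, then leftover ATP measured by luciferase luminescence, where signal falls as kinase activity rises.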

The molecules below were run against Pim-1 kinase (Homo sapiens, UniProt P11309) (assay: Promega Kinase-Glo Pim-1 kinase inhibition assay). Details: Table X; Kinase-Glo; read-out: IC50 on Pim1.
Pim-1 kinase, sequence (P11309 whole entry): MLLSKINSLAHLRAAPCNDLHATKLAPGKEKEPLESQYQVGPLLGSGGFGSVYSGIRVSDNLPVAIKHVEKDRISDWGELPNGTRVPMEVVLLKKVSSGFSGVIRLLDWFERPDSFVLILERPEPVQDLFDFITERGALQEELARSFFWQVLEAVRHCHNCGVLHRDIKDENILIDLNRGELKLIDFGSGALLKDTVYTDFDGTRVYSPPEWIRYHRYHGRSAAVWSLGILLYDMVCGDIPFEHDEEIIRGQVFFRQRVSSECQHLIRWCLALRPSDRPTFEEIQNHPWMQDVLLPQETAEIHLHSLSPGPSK
Assay type: biochemical
Work on `O=S1(=O)CCC(Nc2ccc3ncc(-c4cccc(OC(F)(F)F)c4)n3n2)CC1` [Compound 8-14, 4-((3-(3-(Trifluoromethoxy)phenyl)imidazo[1,2-b]pyridazin-6-yl)amino)tetrahydro-2H-thiopyran 1,1-dioxide] yielded a pIC50 of 5.30 to 6.00. Molecule `CN1CCC(CNc2ccn3ncc(-c4cccc(OC(F)(F)F)c4)c3n2)CC1` [Compound 8-67] has a pIC50 of 7.00 to 8.00. For `O[C@H]1C[C@H](CNc2ccc3ncc(-c4cccc(OC(F)(F)F)c4)n3n2)C1` [Compound 8-7, 3-(((3-(3-(Trifluoromethoxy)phenyl)imidazo[1,2-b]pyridazin-6-yl)amino)methyl)-trans-cyclobutanol], the pIC50 was 7.00 to 8.00. For `C[C@]1(O)CC[C@H](Nc2ccc3ncc(-c4cccc(OC(F)(F)F)c4)n3n2)CC1` [Compound 8-9, 1-Methyl-4-((3-(3-(trifluoromethoxy)phenyl)imidazo[1,2-b]pyridazin-6-yl)amino)-trans-cyclohexanol], the pIC50 was 7.00 to 8.00. `CN(C)CC(=O)N1CCC(CNc2ccc3ncc(-c4cccc(OC(F)(F)F)c4)n3n2)CC1` [Compound 8-45, 2-(dimethylamino)-1-(4-(((3-(3-(trifluoromethoxy)phenyl)imidazo[1,2-b]pyridazin-6-yl)amino)methyl)piperidin-1-yl)ethanone] showed a pIC50 of 7.00 to 8.00. `O=C(CN1CCOCC1)N1CCC(CNc2ccc3ncc(-c4cccc(OC(F)(F)F)c4)n3n2)CC1` [Compound 8-21, 2-Morpholino-1-(4-(((3-(3-(trifluoromethoxy)phenyl)imidazo[1,2-b]pyridazin-6-yl)amino)methyl)piperidin-1-yl)ethanone] showed a pIC50 of 7.00 to 8.00. Molecule `O=S1(=O)CCN(c2ccn3ncc(-c4cccc(C(F)(F)F)c4)c3n2)CC1` [Compound 8-60] has a pIC50 of 5.30 to 6.00. For `C[C@]1(O)CC[C@H](Nc2ccn3ncc(-c4cccc(OC(F)(F)F)c4)c3n2)CC1` [Compound 8-48, 1-Methyl-4-((3-(3-(trifluoromethoxy)phenyl)pyrazolo[1,5-a]pyrimidin-5-yl)amino)-trans-cyclohexanol], the pIC50 was 6.00 to 7.00. `CO[C@H]1CC[C@H](Nc2ccc3ncc(-c4cccc(C(F)(F)F)c4)n3n2)CC1` [Compound 8-32, 4-(trans-Methoxycyclohexyl)-3-(3-(trifluoromethyl)phenyl)imidazo[1,2-b]pyridazin-6-amine] gave a pIC50 of 6.00 to 7.00. For `COCCOc1ccc2ncc(-c3cccc(OC(F)(F)F)c3)n2n1` [Compound 8-42, 6-(2-Methoxyethoxy)-3-(3-(trifluoromethoxy)phenyl)imidazo[1,2-b]pyridazine], the pIC50 was 5.30 to 6.00. Molecule `O=S1(=O)CCC(CNc2ccc3ncc(-c4cccc(C(F)(F)F)c4)n3n2)CC1` [Compound 8-34, 4-(((3-(3-(Trifluoromethyl)phenyl)imidazo[1,2-b]pyridazin-6-yl)amino)methyl)tetrahydro-2H-thiopyran 1,1-dioxide] has a pIC50 of 6.00 to 7.00. `CC(C)(O)[C@H]1CC[C@H](Nc2ccn3ncc(-c4cccc(OC(F)(F)F)c4)c3n2)CC1` [Compound 8-47] was tested, and the pIC50 was 6.00 to 7.00. In the case of `COc1ccc(CNc2ccc3ncc(-c4cccc(OC(F)(F)F)c4)n3n2)cc1` [Compound 8-43, N-(4-Methoxybenzyl)-3-(3-(trifluoromethoxy)phenyl)imidazo[1,2-b]pyridazin-6-amine], the pIC50 was 6.00 to 7.00. `CC(C)O[C@H]1CC[C@H](Nc2ccc3ncc(-c4cccc(OC(F)(F)F)c4)n3n2)CC1` [Compound 8-16, 4-(trans-Isopropoxycyclohexyl)-3-(3-(trifluoromethoxy)phenyl)imidazo[1,2-b]pyridazin-6-amine] showed a pIC50 of 6.00 to 7.00. `NCC1CCN(c2ccc3ncc(-c4cccc(OC(F)(F)F)c4)n3n2)C(=O)C1` (centres unmarked) [Compound 8-24, 4-(Aminomethyl)-1-(3-(3-(trifluoromethoxy)phenyl)imidazo[1,2-b]pyridazin-6-yl)piperidin-2-one] gave a pIC50 of 7.00 to 8.00. For `C[C@]1(O)CC[C@H](Nc2ccn3ncc(-c4cccc(Cl)c4)c3n2)CC1` [Compound 8-62], the pIC50 was 6.00 to 7.00. `O=S1(=O)CCN(c2ccc3ncc(-c4cccc(OC(F)(F)F)c4)n3n2)CC1` [Compound 8-15, 4-(3-(3-(Trifluoromethoxy)phenyl)imidazo[1,2-b]pyridazin-6-yl)thiomorpholine 1,1-dioxide] gave a pIC50 of 5.30 to 6.00. `FC(F)(F)Oc1cccc(-c2cnc3ccc(NCC4CCSCC4)nn23)c1` [Compound 8-18, N-((tetrahydro-2H-thiopyran-4-yl)methyl)-3-(3-(trifluoromethoxy)phenyl)imidazo[1,2-b]pyridazin-6-amine] was tested, and the pIC50 was 5.30 to 6.00. `Clc1cccc(-c2cnc3ccc(NC4CCOCC4)nn23)c1` [Compound 8-39] was tested, and the pIC50 was > 8.00. In the case of `CC(C)(O)CCNc1ccc2ncc(-c3cccc(OC(F)(F)F)c3)n2n1` [Compound 8-3, 2-Methyl-4-((3-(3-(trifluoromethoxy)phenyl)imidazo[1,2-b]pyridazin-6-yl)amino)butan-2-ol], the pIC50 was 7.00 to 8.00. Molecule `CC(C)(O)C(=O)N1CCC(CNc2ccc3ncc(-c4cccc(OC(F)(F)F)c4)n3n2)CC1` [Compound 8-20, 2-Hydroxy-2-methyl-1-(4-(((3-(3-(trifluoromethoxy)phenyl)imidazo[1,2-b]pyridazin-6-yl)amino)methyl)piperidin-1-yl)propan-1-one] has a pIC50 of 7.00 to 8.00. `CO[C@H]1CC[C@H](Nc2ccn3ncc(-c4cccc(Cl)c4)c3n2)CC1` [Compound 8-64] gave a pIC50 of 7.00 to 8.00. `C[C@]1(O)CC[C@H](Nc2ccc3ncc(-c4cccc(Cl)c4)n3n2)CC1` [Compound 8-36, 4-((3-(3-Chlorophenyl)imidazo[1,2-b]pyridazin-6-yl)amino)-1-methyl-trans-cyclohexanol] showed a pIC50 of 6.00 to 7.00. With `OCCN1CCC(CNc2ccc3ncc(-c4cccc(OC(F)(F)F)c4)n3n2)CC1` [Compound 8-27, 2-(4-(((3-(3-(Trifluoromethoxy)phenyl)imidazo[1,2-b]pyridazin-6-yl)amino)methyl)piperidin-1-yl)ethanol] the pIC50 was 7.00 to 8.00. For `C[C@]1(O)CC[C@H](Nc2ccn3ncc(-c4cccc(C(F)(F)F)c4)c3n2)CC1` [Compound 8-55, 1-Methyl-4-((3-(3-(trifluoromethyl)phenyl)pyrazolo[1,5-a]pyrimidin-5-yl)amino)-trans-cyclohexanol], the pIC50 was 7.00 to 8.00. `CC(C)(O)[C@H]1CC[C@H](Nc2ccn3ncc(-c4cccc(Cl)c4)c3n2)CC1` [Compound 8-63] was tested, and the pIC50 was 7.00 to 8.00. For `FC(F)(F)c1cccc(-c2cnn3ccc(NC4CCOCC4)nc23)c1` [Compound 8-58, N-(Tetrahydro-2H-pyran-4-yl)-3-(3-(trifluoromethyl)phenyl)pyrazolo[1,5-a]pyrimidin-5-amine], the pIC50 was 6.00 to 7.00. `CC(C)(O)[C@H]1CC[C@H](Nc2ccc3ncc(-c4cccc(C(F)(F)F)c4)n3n2)CC1` [Compound 8-31] was tested, and the pIC50 was > 8.00. In the case of `O=S1(=O)CCC(CNc2ccn3ncc(-c4cccc(Cl)c4)c3n2)CC1` [Compound 8-66], the pIC50 was 6.00 to 7.00. In the case of `CC(C)(O)CCOc1ccc2ncc(-c3cccc(OC(F)(F)F)c3)n2n1` [Compound 8-41, 2-Methyl-4-((3-(3-(Trifluoromethoxy)phenyl)imidazo[1,2-b]pyridazin-6-yl)oxy)butan-2-ol], the pIC50 was 6.00 to 7.00. `O=S1(=O)CCC(CNc2ccc3ncc(-c4cccc(Cl)c4)n3n2)CC1` [Compound 8-40, 4-(((3-(3-Chlorophenyl)imidazo[1,2-b]pyridazin-6-yl)amino)methyl)tetrahydro-2H-thiopyran 1,1-dioxide] gave a pIC50 of 6.00 to 7.00. With `N[C@H]1CC[C@H](Nc2ccn3ncc(-c4cccc(OC(F)(F)F)c4)c3n2)CC1` [Compound 8-52, N-(3-(3-(Trifluoromethoxy)phenyl)pyrazolo[1,5-a]pyrimidin-5-yl)cyclohexane-1,4-trans-diamine] the pIC50 was > 8.00. `FC(F)(F)c1cccc(-c2cnc3ccc(NC4CCOCC4)nn23)c1` [Compound 8-33, N-(Tetrahydro-2H-pyran-4-yl)-3-(3-(trifluoromethyl)phenyl)imidazo[1,2-b]pyridazin-6-amine] showed a pIC50 of 7.00 to 8.00. `N[C@H]1CC[C@H](Nc2ccc3ncc(-c4cccc(OC(F)(F)F)c4)n3n2)CC1` [Compound 8-8, (3-(3-(Trifluoromethoxy)phenyl)imidazo[1,2-b]pyridazin-6-yl)cyclohexane-trans-1,4-diamine] was tested, and the pIC50 was > 8.00. `O=S1(=O)CCC(CNc2ccc3ncc(-c4cccc(OC(F)(F)F)c4)n3n2)CC1` [Compound 8-13, 4-(((3-(3-(Trifluoromethoxy)phenyl)imidazo[1,2-b]pyridazin-6-yl)amino)methyl)tetrahydro-2H-thiopyran 1,1-dioxide] was tested, and the pIC50 was 6.00 to 7.00. `Clc1cccc(-c2cnn3ccc(NC4CCOCC4)nc23)c1` [Compound 8-65] was tested, and the pIC50 was 6.00 to 7.00. Work on `FC(F)(F)Oc1cccc(-c2cnn3ccc(NC4CCOCC4)nc23)c1` [Compound 8-50, N-(Tetrahydro-2H-pyran-4-yl)-3-(3-(trifluoromethoxy)phenyl)pyrazolo[1,5-a]pyrimidin-5-amine] yielded a pIC50 of 6.00 to 7.00. In the case of `CC(C)(O)[C@H]1CC[C@H](Nc2ccc3ncc(-c4cccc(OC(F)(F)F)c4)n3n2)CC1` [Compound 8-10], the pIC50 was > 8.00. `CC(C)(O)CNc1ccc2ncc(-c3cccc(OC(F)(F)F)c3)n2n1` [Compound 8-6, 2-Methyl-1-((3-(3-(trifluoromethoxy)phenyl)imidazo[1,2-b]pyridazin-6-yl)amino)propan-2-ol] gave a pIC50 of 7.00 to 8.00. Molecule `FC(F)(F)Oc1cccc(-c2cnc3ccc(NCC4CCOCC4)nn23)c1` [Compound 8-19, N-((tetrahydro-2H-pyran-4-yl)methyl)-3-(3-(trifluoromethoxy)phenyl)imidazo[1,2-b]pyridazin-6-amine] has a pIC50 of 7.00 to 8.00. With `CC(C)(O)[C@H]1CC[C@H](Nc2ccc3ncc(-c4cccc(Cl)c4)n3n2)CC1` [Compound 8-37] the pIC50 was > 8.00. With `O[C@H]1CC[C@H](Oc2ccc3ncc(-c4cccc(OC(F)(F)F)c4)n3n2)CC1` [Compound 8-4, 4-((3-(3-(Trifluoromethoxy)phenyl)imidazo[1,2-b]pyridazin-6-yl)oxy)-trans-cyclohexanol] the pIC50 was > 8.00. Work on `O=S1(=O)CCC(CNc2ccn3ncc(-c4cccc(C(F)(F)F)c4)c3n2)CC1` [Compound 8-59] yielded a pIC50 of 6.00 to 7.00. `C[C@]1(O)CC[C@H](Nc2ccc3ncc(-c4cccc(C(F)(F)F)c4)n3n2)CC1` [Compound 8-30, 1-Methyl-4-((3-(3-(trifluoromethyl)phenyl)imidazo[1,2-b]pyridazin-6-yl)amino)-trans-cyclohexanol] gave a pIC50 of 7.00 to 8.00.
